Values quoted from earlier work in US20180271812A1, “CALCIUM BASED CLINICAL MATERIAL WITH ANTIMICROBIAL PROPERTIES AND METHOD OF FORMING FOR PREVENTION OR TREATMENT OF INFECTION” (Biocomposites Limited, priority 2017, published 2018).
Like-named read-outs stand apart in the source and are kept apart here.

Columns and labels:
[1] = test system: Staphylococcus aureus; details: breakpoint, EUCAST clinical breakpoints v7.0 (Jan 2017)
[2] = test system: Pseudomonas aeruginosa; details: breakpoint
[3] = background statement, no test described
[4] = American Society for Microbiology Kirby-Bauer disk diffusion susceptibility test protocol
[5] = EUCAST clinical breakpoints v7.0 (Jan 2017)

Compound	ZOI against Staphylococcus aureus, Resistant [1]	ZOI against Staphylococcus aureus, Susceptible [1]	ZOI against Pseudomonas aeruginosa, Resistant [2, 4]	ZOI against Pseudomonas aeruginosa, Susceptible [2, 4]	ZOI against Pseudomonas aeruginosa, Resistant [2, 5]	ZOI against Pseudomonas aeruginosa, Susceptible [2, 5]	pH [3]
NC[C@H]1O[C@H](O[C@H]2[C@H](O)[C@@H](O[C@H]3O[C@H](CO)[C@@H](O)[C@H](N)[C@H]3O)[C@H](N)C[C@@H]2N)[C@H](N)C[C@@H]1O [Tobramycin]	<18 mm	≥18 mm	≤12 mm	≥15 mm	<16 mm	≥16 mm	
NCC[C@H](O)C(=O)N[C@@H]1C[C@H](N)[C@@H](O[C@H]2O[C@H](CN)[C@@H](O)[C@H](O)[C@H]2O)[C@H](O)[C@H]1O[C@H]1O[C@H](CO)[C@@H](O)[C@H](N)[C@H]1O [Amikacin]	<16 mm	≥18 mm					
CN(C)c1cc(NC(=O)CNC(C)(C)C)c(O)c2c1C[C@H]1C[C@H]3[C@H](N(C)C)C(O)=C(C(N)=O)C(=O)[C@@]3(O)C(O)=C1C2=O [Tigecycline]	<18 mm	≥18 mm					
Gentamicin	<18 mm	≥18 mm	≤12 mm	≥15 mm	<15 mm	≥15 mm	
C/C=C/C=C/C(=O)O [Sorbic acid]							4.76
